Measured values: paper PMC11940343, “In Vitro and In Vivo Evaluation of the De Novo Designed Antimicrobial Peptide P6.2 Against a KPC-Producing P. aeruginosa Clinical Isolate” (Biomolecules, 2025)
No end group written: not given here.

Experiments:
[1] = system: P. aeruginosa strain PA01; conditions: mice challenged with P. aeruginosa PA01; ref previous work; cited from earlier work
Source text: The antimicrobial peptide P6.2 was previously de novo designed as an alpha helix cationic amphipathic molecule. […] In this work, the peptide P6.2 antimicrobial activity and its possible synergy with ...

P. aeruginosa M13513 = experiment: Galleria mellonella larval infection model; assay type: in vivo
Source text: Lepidoptera were reared in the laboratory in a standardized manner. A breeding colony was established, and the different stages of the insect’s life cycle were documented. Adult insects were housed in a plastic container without access to food, allowing for the collection of eggs. Then, eggs and larvae were placed in containers with fresh food, prepared from autoclaved wheat bran (50%), dry yeast (5%), beeswax (6%), honey (26%), and glycerin (13%). In each growth cycle, a pool of larvae was reserved to progress to pupa and adult generation. The larvae and eggs were kept at room temperature during the warm seasons and in an oven with humidity control at 30 °C during the cold seasons. For each experiment, a group of late-stage caterpillars was set aside and kept in the dark at a temperature of 10–12 °C, ensuring their use within one week of collection. For the in vivo tests, larvae of approximately 2 cm in length and an average weight of 250 mg were used. This average weight was used to calculate the antimicrobial doses. The bacterial inoculum used in the larval infection models was prepared from an ON culture, which was washed twice with physiological saline solution and adjusted by measuring OD600nm. […] The larvae were incubated at 37 °C, and their survival was monitored for five days.

## GLLRKWGKKWKEFLRRVWK-NH2 [Peptide P6.2]
[1]
  effect in murine acute lung infection model: anti-inflammatory effects
P. aeruginosa M13513; P6.2 5 + Mer 2.5 vs Mer 2.5
  survival compared with meropenem 2.5 alone (log-rank test): not significative differences
P. aeruginosa M13513; peptide alone, 2.5-80 mg/kg single injection 1 h post infection, 10^3 CFU/larva, n = 10, 5 days
  prevention of larvae death: not effective
